“Also recorded” adds a separate entry of the source. Where no end group is shown, it is not given here. [ ]: non-standard residue; d: D form.
Tests used:
[1] = system: Raw macrophage-derived cells; assay: Cell proliferation assay (phenol red, LDH content); type: cell-based; conditions: for Effect on growth of raw macrophage-derived cells: 2.5 μM, 48 hrs, phenol red / LDH content
Description: Use of the exemplary peptide of the invention as a carrier moiety was also examined in a cell proliferation assay. Raw macrophage-derived cells were incubated for 48 hrs with 2.5 μM of the indicated nucleoside analog or the analog as a conjugate with the RYF peptide in the presence of phenol red. Cultures containing dividing cells turn medium clear, while the medium of cultures containing in non-dividing cells remains dark (active compounds). Percentage growth was also determined by measuring the relative content of LDH (FIG. 11B). […] For example, the “ribo” and “tg” (Thioguanine) compounds have no effect at the concentration tested (2.5 μm), but become potently cytotoxic when conjugated to an exemplary peptide transporter of the invention (i.e., RYF).
The Experiment was repeated to investigate the effects of the L- or D-linkage on cytotoxic properties of the BAM moiety. The cells were incubated with 3′ amino β-D-arabinofuranoside either alone or in the form of a conjugate with the RYF peptide. […] However, once the 3′ position is conjugated to a D-entantiomer, it cannot be removed by a protease, and once incorporated into the DNA-strand, it will function to prevent further DNA elongation.
The experiment was repeated with 3′AdT (3′ amino deoxythymidine) and 3′ amino β-D-arabinofuranoside (Ribo). Cells were incubated with each of the compounds alone or as an N-terminally linked conjugate to the RYF peptide via either L-Glu (E) or D-Glu (e). The cells were then incubated for 72 hrs before LDH content was measured.

[2] = system: leukemia/lymphoma cell lines; assay: Cancer cell line screening panel, summary over leukemia/lymphoma lines; type: cell-based, human; conditions: 6 leukemia/lymphoma cell lines
Description: (§1) The use of peptides of the invention as carrier molecules was investigated in a screening panel of human cancer cell lines. The human tumor cell lines of the cancer screening panel were grown in RPMI 1640 medium containing 5% fetal bovine serum and 2 mM L-glutamine. For a typical screening experiment, cells were inoculated into 96 well microtiter plates in volumes of 100 μL at plating densities ranging from 5,000 to 40,000 cells/well depending on the doubling time of individual cell lines. […] After 24 h, two plates of each cell line were fixed in situ with TCA to provide a measurement of the cell population at the time of drug addition (Tz). The experimental therapeutics were solubilized in dimethyl sulfoxide at 400-fold the desired final maximum test concentration and stored frozen prior to use. […] Bound stain was subsequently solubilized with 10 mM trizma base, and the absorbance was read on an automated plate reader at a wavelength of 515 nm. […] Using the seven absorbance measurements [time zero, (Tz), control growth, (C), and test growth in the presence of compound at the five concentration levels (Ti)], the percentage growth was calculated at each of the compound concentrations levels. Percentage growth inhibition was calculated as: [(Ti−Tz)/(C−Tz)]×100 for concentrations for which Ti≧Tz [(Ti−Tz)/Tz]×100 for concentrations for which Ti<Tz.

[3] = system: cell lines from other lineages; assay: Cancer cell line screening panel, summary over other lineages; type: cell-based, human; conditions: 54 cell lines from other lineages
Description: as §1

[4] = system: chondroitin-4-sulfate (C4S); assay: Modified ELISA, peptide binding to coated proteoglycans
Description: The binding of the nine-mer peptides of the invention to C4S predicted by the models, in particular, as compared to the binding to other proteoglycans was tested using a modified ELISA protocol. ELISA plates were coated overnight with 1 mg/ml of heparin sulphate (HS), chondroitin-4-sulfate (C4S), chondroitin-6-sulfate (C6S) or hyaluronic acid (HA) in PBS. The wells were then washed with PBS and incubated for 1 hour at room temperature with 1 mg/ml of an exemplary peptide of the invention having the sequence RYFvRIKYRh (“RYF”; SEQ ID NO:2) or a standard TAT peptide. The plates were then thoroughly washed with PBS and subsequently photographed with a LUMASCOPE™ luminescent microscope. Images were then quantified using the ImageJ software (FIG. 4).
The same modified ELISA protocol was used to examine the impact of altering the chirality of the amino acid residues at positions 1, 5, 9 and 3 or 7 on the binding of the peptides to C4S. […] In FIG. 5, an upper case letter indicates an L-enantiomer and a lower case letter indicates a D-enantiomer.

[5] = system: CHO cells; assay: FITC-peptide binding to C4S expressing cells, fluorescence microscopy; type: cell-based; set-up: dose or concentration left out as unconfirmed; conditions: FITC conjugated peptide, 24 hrs
Excerpt: (§2) As explained throughout the description, the present molecules are able to selectively bind C4S over other proteoglycans.

[6] = system: Sog9 cells; assay: FITC-peptide binding to cells lacking C4S, fluorescence microscopy; type: cell-based; set-up: dose or concentration left out as unconfirmed; conditions: FITC conjugated peptide, 24 hrs
Excerpt: as §2

[7] = system: Macrophages; assay: FITC-RYF binding to chlorate pre-treated macrophages; type: cell-based; conditions: 0, 3, 10 or 30 μM chlorate for 16 hours
Description: The same fluorescent microscopy procedure was used to assess the binding of the FITC-RYF peptide on C4S expressing cells pre-treated with chlorate. Chlorate is an inhibitor of sulfotransferases, and, thus, chlorate treatment decreases or inhibits C4S expression. Macrophages were treated with 0, 3, 10 or 30 μM chlorate for 16 hours prior to washing, incubation with RYF (SEQ ID NO:2) peptide and photography as described above.

Molecule | Effect on growth of raw macrophage-derived cells [1] | Activity on cell growth (LDH content) ([1]; 72 hrs, alone or N-terminally linked to RYF via L-Glu (E) or D-Glu (e)) | mean growth [2] | mean growth [3] | Binding to C4S ([4]; ELISA plates coated with 1 mg/ml C4S, 1 mg/ml peptide, 1 hour, room temperature) | Selective binding to C4S over other proteoglycans ([4]; versus heparin sulphate (HS), chondroitin-6-sulfate (C6S), hyaluronic acid (HA)) | Binding to CHO cells expressing C4S [5] | Binding to Sog9 cells lacking C4S [6] | Binding to macrophages pre-treated with chlorate [7]
3′ amino β-D-arabinofuranoside [Ribo] | no effect | inactive | – | – | – | – | – | – | –
Nc1nc2nc[nH]c2c(=S)[nH]1 [tg, Thioguanine] | no effect | – | 44.13 % of untreated | 86.65 % of untreated | – | – | – | – | –
RYFvRIKYRh (RYF[dV]RIKYR[dH]) | – | – | – | – | specifically binds to the C4S proteoglycan | selectively binds C4S over the other proteoglycans tested; also recorded: specifically and selectively binds C4S over other proteoglycans | intense, uniform binding | did not bind; also recorded: failed to bind | binding correlated with chondroytine sulfate expression; also recorded: binding decreased with decreasing C4S expression
